In PubChem BioAssay AID1897 (NMMLSC, 2009):
Active and inactive are the calls of the source. No rule for the calls is given here.

Molecular target: Mitogen-activated protein kinase kinase kinase 2 (Homo sapiens) + Dual specificity mitogen-activated protein kinase kinase 5 (Homo sapiens) (UniProt Q9Y2U5+Q13163)
Test: MEKK2 PB1-MEK5 interaction blockers – biochemical, bead multiplex flow cytometry, wildtype, dose response (AID 1897)
Settings: MEK5-MEKK2 PB1 binding; for Ki: measured here: Ki from binding competition

Chain of Mitogen-activated protein kinase kinase kinase 2 (Homo sapiens) + Dual specificity mitogen-activated protein kinase kinase 5 (Homo sapiens) (Q13163 whole entry, looked up): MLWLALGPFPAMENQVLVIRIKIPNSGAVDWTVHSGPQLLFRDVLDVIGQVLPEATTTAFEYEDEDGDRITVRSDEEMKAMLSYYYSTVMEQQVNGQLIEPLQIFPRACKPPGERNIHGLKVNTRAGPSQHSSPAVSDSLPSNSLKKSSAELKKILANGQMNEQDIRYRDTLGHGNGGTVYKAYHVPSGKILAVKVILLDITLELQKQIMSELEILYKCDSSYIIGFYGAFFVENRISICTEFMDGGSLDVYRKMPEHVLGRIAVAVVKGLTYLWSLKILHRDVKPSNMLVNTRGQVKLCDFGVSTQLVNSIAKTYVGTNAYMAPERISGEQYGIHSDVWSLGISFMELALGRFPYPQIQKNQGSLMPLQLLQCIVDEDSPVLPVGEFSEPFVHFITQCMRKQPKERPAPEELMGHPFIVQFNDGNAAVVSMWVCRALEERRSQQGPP
Chain of Mitogen-activated protein kinase kinase kinase 2 (Homo sapiens) + Dual specificity mitogen-activated protein kinase kinase 5 (Homo sapiens) (Q9Y2U5 whole entry, looked up): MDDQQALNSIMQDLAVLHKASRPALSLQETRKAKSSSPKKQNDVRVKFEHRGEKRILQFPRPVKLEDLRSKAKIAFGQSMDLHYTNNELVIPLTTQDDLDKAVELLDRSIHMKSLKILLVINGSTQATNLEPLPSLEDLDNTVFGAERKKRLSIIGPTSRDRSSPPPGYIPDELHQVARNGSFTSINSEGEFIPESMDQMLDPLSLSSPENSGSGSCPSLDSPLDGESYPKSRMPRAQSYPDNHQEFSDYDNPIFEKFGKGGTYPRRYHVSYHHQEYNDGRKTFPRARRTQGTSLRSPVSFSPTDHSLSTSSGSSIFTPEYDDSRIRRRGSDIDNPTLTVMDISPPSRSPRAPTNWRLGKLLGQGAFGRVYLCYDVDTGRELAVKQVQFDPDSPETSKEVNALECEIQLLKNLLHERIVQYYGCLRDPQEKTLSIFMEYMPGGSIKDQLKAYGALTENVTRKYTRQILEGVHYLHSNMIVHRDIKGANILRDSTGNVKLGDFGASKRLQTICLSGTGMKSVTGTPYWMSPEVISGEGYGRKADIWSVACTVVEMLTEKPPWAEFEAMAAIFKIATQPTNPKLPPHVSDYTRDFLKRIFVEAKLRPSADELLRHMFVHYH

## CCC(/C=C1\Sc2ccc(OC)cc2N1CC)=C\c1sc2ccc(OC)cc2[n+]1CCCS(=O)(=O)[O-]
  EC50: 4.49 µM
  Ki: 4.01 µM

## COc1cc(CNCCc2c[nH]c3ccccc23)ccc1OCc1ccccc1F
  EC50: > 30 µM (inactive)

## CCC(=C/c1sc2ccc3ccccc3c2[n+]1C)/C=C1\Sc2ccc3ccccc3c2N1C
  EC50: 0.14 µM
  Ki: 0.12 µM

## CCCCCc1cc(=O)oc2c(C(CCN3CCCCC3)c3ccc(OC)cc3)c(OC)cc(OC)c12 (stereo not given)
  EC50: > 30 µM (inactive)

## O=C(OCC1O[C@@H](OC(=O)c2cc(O)c(O)c(O)c2)[C@@H](OC(=O)c2cc(O)c(O)c(O)c2)[C@@H](OC(=O)c2cc(O)c(O)c(O)c2)[C@@H]1OC(=O)c1cc(O)c(O)c(O)c1)c1cc(O)c(O)c(O)c1 (stereo not given in full)
  EC50: > 30 µM (inactive)

## O=C1c2ccccc2-c2onc3ccc(NCCCn4ccnc4)c1c23
  EC50: > 30 µM (inactive)

## Cc1cc2ccccc2n1CCNC(=O)c1cccs1
  EC50: 14.6 µM
  Ki: 13.1 µM

## Cc1cc2ccccc2n1CCNC(=O)c1ccc(Br)o1
  EC50: 3.48 µM
  Ki: 3.12 µM

## C#CCOCCOCCOCCNc1nc(N2CCN(C(=O)[C@H](Cc3ccc(O)cc3)n3cc([C@@H](N)C(C)CC)nn3)CC2)nc(N2CCN(C(=O)[C@H](Cc3cc4ccccc4[nH]3)n3cc([C@@H](N)Cc4ccc(O)cc4)nn3)CC2)n1 (stereo not given in full)
  EC50: 12.5 µM

## COc1ccc2nc(C)cc(N/N=C/c3cccc(OC)c3O)c2c1
  EC50: > 30 µM (inactive)

## O=C1Nc2ccc(Br)cc2/C1=N/N=C/C1=C(N2CCOCC2)C(=C\c2ccccc2)/CC1
  EC50: 1.87 µM
  Ki: 1.68 µM

## COc1ccccc1N(CN1C(=O)c2ccccc2C1=O)C(=O)c1cccc(C)c1
  EC50: > 30 µM (inactive)

## CCCCCCCCCCCCCCCC[n+]1ccc(/C=N/O)cc1
  EC50: 2.94 µM

## CCN1CCN(Cc2ccc(NC(=O)c3cc(NC(=O)C(=O)c4c[nH]c5ccccc45)cc(OC)c3)cc2C(F)(F)F)CC1
  EC50: 0.34 µM

## COc1ccc2nc(C)cc(N/N=C/c3ccc(F)cc3)c2c1
  EC50: > 30 µM (inactive)

## CC(C)n1cc(CN2CCC(C(=O)Nc3cccc(-c4cccc(Cl)c4)c3)CC2)cn1
  EC50: > 30 µM (inactive)

## COc1ccc(-n2nc3c(N)n[nH]c3cc2=O)cc1
  EC50: 1.48 µM
  Ki: 1.33 µM

## COc1ccc2[nH]c3c(C)c4ccncc4c(C)c3c2c1
  EC50: > 30 µM (inactive)

## NC(=NCCCCCCN=C(N)/N=C(\N)Nc1ccc(Cl)cc1)/N=C(\N)Nc1ccc(Cl)cc1
  EC50: 0.67 µM

## CCCCCc1cc(=O)oc2c(C(CCN3CCCC(C)C3)c3ccc(OC)cc3)c(OC)cc(OC)c12 (stereo not given)
  EC50: 9.57 µM

## CCN(CC)CCOC(=O)c1ccc(N/C=C(/C#N)c2nc(-c3ccc(OC)cc3)cs2)cc1
  EC50: > 30 µM (inactive)

## COc1ccccc1N1CCN(S(=O)(=O)c2ccc(Cl)s2)CC1
  EC50: > 30 µM (inactive)

## CN(C)CCCNc1cc(C(C)(C)C)nc2c(-c3ccc(Cl)cc3)cnn12
  EC50: 4.35 µM

## O=C(Nc1ccc(C2=NCCN2)cc1)c1ccc(C(=O)Nc2ccc(C3=NCCN3)cc2)c([N+](=O)[O-])c1
  EC50: > 30 µM (inactive)

## CCN(CC)CCOc1ccc2c(c1)C(=NNC(=O)c1ccccn1)c1cc(OCCN(CC)CC)ccc1-2
  EC50: 5.71 µM

## CNC[C@H](CC1CCCCC1)NC[C@H](Cc1ccccc1)NCCC12CC3CC(CC(C3)C1)C2
  EC50: 4.93 µM

## O=C(NNc1c2ccccc2nc2ccccc12)c1cc2ccccc2cc1O
  EC50: > 30 µM (inactive)

## CCc1ccc(-c2nn(-c3ccccc3)cc2CSC(=N)N)cc1
  EC50: 5.12 µM

## COc1ccc(CSc2n[nH]c(C)n2)cc1[N+](=O)[O-]
  EC50: > 30 µM (inactive)

## COc1ccc(-c2cc(C#N)nc(N3CCNCC3)n2)cc1
  EC50: > 30 µM (inactive)

## Cc1nc(Nc2cnc(/C=C/c3cc(C(=O)Nc4cccc(C(F)(F)F)c4)ccc3C)cn2)cc(N2CCNCC2)n1
  EC50: > 30 µM (inactive)

## CCCCn1c(O)c(/C=C/C=C/C=Nc2ccccc2)sc1=S
  EC50: 1.12 µM
  Ki: 1 µM

## CCOC(=O)c1c(C)n(-c2ccc(C)cc2)c2ccc(OCC(O)CN3CCN(C)CC3)cc12 (stereo not given)
  EC50: > 30 µM (inactive)
